Results: the supplement of paper PMC3974653
Counter-ions that a name gives are not always drawn.

system: MTT (mouse pheochromocytoma); assay: IC50 of cell viability (ATP content); conditions: (24 or 48 h)
Outline: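 MTT mouse pheochromocytoma cells (5 µl of 200,000 cells/ml per well, white 1536-well plates, DMEM with 5% FBS and 1% horse serum) were cultured overnight at 37°C, 5% CO2. They then received 23 nl library compound in DMSO by pintool at 8 concentrations (final 0.5 nM to 46 µM) for 24 or 48 hrs. CellTiter-Glo ATP luminescence was read after 15 minutes. Signals were normalised to positive-control (100% inhibition) and DMSO (0%) wells, and IC50 came from a four-parameter logistic fit.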

SMILES | IC50 of cell viability
Cn1sc(Cl)cc1=O [METHYLCHLOROISOTHIAZOLINONE] | > 46 µM
CCN(CC)CCO[C@H]1CC[C@@]2(C)C(=CC[C@@H]3C2CC[C@]2(C)C(=O)CCC32)C1 (stereo in doubt) [3b-(2-Diethylaminoethoxy)androst-5-en-17-one, HCl] | > 46 µM
O=c1[n-]c(=O)n(Cl)c(=O)n1Cl [Sodium dichloroisocyanurate] | > 46 µM
Cc1cn([C@H]2CC(F)[C@@H](CO)O2)c(=O)[nH]c1=O (some centres undefined) [Alovudine] | > 46 µM
Nc1ccccc1N [1,2-Phenylenediamine] | > 46 µM
CC1(C)C[C@@H]1C(=O)N/C(=C\CCCCSC[C@H](N)C(=O)O)C(=O)O [CILASTATIN SODIUM] | > 46 µM
NCC(CC(=O)O)c1ccc(Cl)cc1 (centres undefined) [BACLOFEN] | > 46 µM
CCC(=O)c1c(O)cc(O)cc1O [FLOPROPIONE] | > 46 µM
N[C@@H](Cc1cc(I)c(O)c(I)c1)C(=O)O [3,5-DIIODO-L-TYROSINE] | > 46 µM
Oc1ccc(Cl)c2c1CCC2 [Chlorindanol] | > 46 µM
CC(C)=CCN1CC[C@@]2(C)c3cc(O)ccc3C[C@@H]1C2C (single isomer, unassigned; (-)) [(-)-Pentazocine] | > 46 µM
CC/1=C/C(=O)[N-][S](=O)(=O)O1 [Acesulfame K] | > 46 µM
O=C([O-])c1nc(O)nc(O)n1 [OTERACIL POTASSIUM] | > 46 µM
C[N+]1(C)[C@@H]2CC[C@@H]1CC(OC(=O)[C@@H](CO)c1ccccc1)C2.O=[N+]([O-])[O-] (some centres undefined) [Methylatropine nitrate] | > 46 µM
CC(C)=CCC/C(C)=C/C=C/C(C)=C/C=C/C(C)=C/C=C/C=C(C)/C=C/C=C(C)/C=C/C=C(\C)CCC=C(C)C [LYCOPENE] | > 46 µM
CC(O)C(N)C(=O)O (centres undefined) [THREONINE] | > 46 µM
C=Cc1ccccc1 [Styrene] | > 46 µM
FC(F)(F)C(F)(F)C(F)(F)C(F)(F)C(F)(F)C(F)(F)C(F)(F)C(F)(F)Br [Perflubron] | > 46 µM
OCC(O)C(O)C(O)C(O)CO (centres undefined) [galactitol] | > 46 µM
CC(C)C1NC(=O)[C@@H](NC(=O)C2=C3\N=C\4/C(=C(/C)C(=O)\C(=C4C(=O)N[C@H]5[C@@H](C)OC(=O)C(C(C)C)N(C)C(=O)CN(C)C(=O)[C@@H]6CCCN6C(=O)C(NC5=O)C(C)C)N)OC3=C(C)C=C2)[C@@H](C)OC(=O)C(C(C)C)N(C)C(=O)CN(C)C(=O)[C@@H]7CCCN7C1=O (some centres undefined) | > 46 µM
O=C(NC(=O)c1c(F)cccc1F)Nc1ccc(Cl)c(Oc2ncc(C(F)(F)F)cc2Cl)c1 [Fluazuron] | > 46 µM
O=C(O)C1/C(=C/CO)OC2CC(=O)N21.[Li] (centres undefined) [CLAVULANATE LITHIUM] | > 46 µM
C=CCC1([C@@H](C)CCC)C(=O)NC(=O)NC1=O [S-(-)-Secobarbital] | > 46 µM
CC(C)NCC(O)c1ccc(N)c(C#N)c1 (centres undefined) [CIMATEROL] | > 46 µM
N=C(N)NC(=O)c1nc(Cl)c(N)nc1N [AMILORIDE] | > 46 µM
CCCCCCC(O)C/C=C\CCCCCCCC(=O)O (centres undefined) [Ricinoleic acid] | > 46 µM
Nc1nnc(-c2cccc(Cl)c2Cl)c(N)n1 [Lamotrigine] | > 46 µM
CNC(=O)Oc1ccc2c(c1)[C@]1(C)CCN(C)[C@@H]1N2C [PHYSOSTIGMINE] | > 46 µM
S=P(N1CC1)(N1CC1)N1CC1 [Thiotepa] | > 46 µM
c1ccc2nc(N3CCNCC3)ccc2c1 [QUIPAZINE] | > 46 µM

The next lines start with the values.

IC50 of cell viability | SMILES
> 46 µM | Cc1cc(-c2ccc(/N=N/c3ccc4c([S+](=O)([O-])O)cc([S+](=O)([O-])O)c(N)c4c3O)c(C)c2)ccc1/N=N/c1ccc2c([S+](=O)([O-])O)cc([S+](=O)([O-])O)c(N)c2c1O [C.I. Direct Blue 53]
> 46 µM | Cc1cc(Nc2ccccc2C(=O)O)ccc1Cl [Benzoic acid, 2-[(4-chloro-3-methylphenyl)amino]-]
> 46 µM | CCC(=O)O[C@]1([C@@H](C)C[C@H]2[C@H]3C[C@@H](F)\C4=C\C(=O)\C=C/[C@@]4(C)[C@@]3(F)[C@@H](O)C[C@]12C)C(=O)SCF [Fluticasone propionate]
> 46 µM | O=C(O)CC/C=C\CC[C@@H]1[C@@H](N2CCCCC2)[C@@H](O)C[C@@H]1OCc1ccc(-c2ccccc2)cc1 [VAPIPROST HYDROCHLORIDE]
> 46 µM | CCN(CC)C(=O)c1cc([S+](=O)([O-])Cc2ccccc2)c(N2CCC(c3ccccc3)CC2)cc1N(CC)CCN(C)C
> 46 µM | CC(=O)O.N=C(N)NCCCC(NC(=O)C1CCCN1C(=O)C1CSSCCC(=O)NC(Cc2ccc(O)cc2)C(=O)NC(Cc2ccccc2)C(=O)NC(CCC(N)=O)C(=O)NC(CC(N)=O)C(=O)N1)C(=O)NCC(N)=O.O.O.O (centres undefined) [DESMOPRESSIN]
> 46 µM | O=C(O)c1cc(-c2ccccc2)nc2ccccc12 [CINCHOPHENUM]
> 46 µM | CO[C@H]1[C@@H](O[C@@H]2O[C@@H](C)[C@@H](O[C@H]3C[C@](C)(O)[C@H](O)[C@H](C)O3)[C@@H](N(C)C)[C@H]2O)[C@H](CC=O)C[C@@H](C)[C@@H](O[C@H]2CC[C@H](N(C)C)[C@H](C)O2)/C=C\C=C/C[C@@H](C)OC(=O)C[C@H]1O [Spiramycin]
> 46 µM | CCOC(=O)Nc1ccc2c(c1)N(C(=O)CN(C)C)c1ccccc1CC2 [Tiracizine]
> 46 µM | CC/C=C(\C(=O)N[C@H]1C(=O)N2C(C(=O)OCOC(=O)C(C)(C)C)=C(COC(N)=O)CS[C@H]12)c1csc(N)n1 [Cefcapene pivoxil hydrochloride]
> 46 µM | CCCc1nc(C)c2c(=O)nc(-c3cc([S+](=O)([O-])N4CCN(CC)CC4)ccc3OCC)[nH]n12 [VARDENAFIL HYDROCHLORIDE]
> 46 µM | CC(=O)Nc1ccc(C(=O)O)cc1 [p-Acetamidobenzoic acid]
> 46 µM | COc1cccc(CCc2ccccc2OCC(CN(C)C)OC(=O)CCC(=O)O)c1 (centres undefined) [SARPOGRELATE HYDROCHLORIDE]
> 46 µM | c1ccc2[nH]ccc2c1 [INDOLUM]
> 46 µM | CO[C@@H]1[C@@H](OC2OC(C)C(OC3CC(C)(O)C(O)C(C)O3)C(N(C)C)C2O)[C@@H](CC=O)C[C@@H](C)[C@@H](OC2CCC(N(C)C)C(C)O2)/C=C/C=C/C[C@@H](C)OC(=O)C[C@H]1OC(C)=O (some centres undefined) [Acetyl Spiramycin]
> 46 µM | CC(=O)OCC(=O)NCCCOc1cccc(CN2CCCCC2)c1 [ROXATIDINE ACETATE HYDROCHLORIDE]
> 46 µM | Cc1ccc(Nc2nccc(N(C)c3ccc4c(C)n(C)nc4c3)n2)cc1[S+](N)(=O)[O-] [Pazopanib]

IC50 of cell viability | SMILES
> 46 µM | NNC(=O)CP(=O)(c1ccccc1)c1ccccc1 [Fosenazida]
> 46 µM | CC1(O\C(=C/C1=O)C(O)=O)C2=CC=CC=C2 (centres undefined) [Acifran]
> 46 µM | COC(=O)C\1=C(C)\N\C(=C(/[C@@H]1C2=CC(=CC=C2)[N+]([O-])=O)C(=O)O[C@@H]3CCCN(C3)CC4=CC=CC=C4)C (racemic) [rac Benidipine Hydrochloride]
> 46 µM | CC(C)CN(C[C@@H](OP(=O)([O-])[O-])[C@H](Cc1ccccc1)NC(=O)O[C@@H]1CCOC1)[S+](=O)([O-])c1ccc(N)cc1 [FOSAMPRENAVIR CALCIUM]
> 46 µM | CCCOC(=O)c1ccccc1 [PROPYL BENZOATE]
> 46 µM | CCN1C(=O)N[C@@H](c2ccccc2)C1=O [Ethotoin]
> 46 µM | CC(=O)Nc1ccc([S+](=O)([O-])Nc2cc(C)on2)cc1 [N-Acetyl Sulfamethoxazole]
> 46 µM | COc1ccc([C@]2(C#N)CC[C@H](C(=O)O)CC2)cc1OC1CCCC1 [CILOMILAST]
> 46 µM | CCC1NC(=O)C(NC(=O)c2ncccc2O)C(C)OC(=O)C(c2ccccc2)NC(=O)C2CC(=O)CCN2C(=O)C(Cc2ccccc2)N(C)C(=O)C2CCCN2C1=O (centres undefined) [VIRGINIAMYCIN]
> 46 µM | C=CCOc1ccccc1OC[C@H](O)CNC(C)C [Oxprenolol hydrochloride]
> 46 µM | COC1=CC=C2[N]3CCN(C)\C4=N\CCC(=C34)C2=C1 [Metralindole]
> 46 µM | Cl.O=C(CCCN1CCC(O)(c2cccc(C(F)(F)F)c2)CC1)c1ccc(F)cc1 [Trifluperidol hydrochloride]
> 46 µM | O=C(O)COc1ccc(CCN[S+](=O)([O-])c2ccccc2)s1 [LINOTROBANUM]
> 46 µM | CC[C@H]1NC(=O)c2cc([S+](N)(=O)[O-])c(Cl)cc2N1 [Quinethazone]
> 46 µM | O\C1=C(/C2CCC(CC2)C3=CC=C(Cl)C=C3)C(=O)C4=C(C=CC=C4)C1=O (centres undefined) [Atovaquone]
> 46 µM | CC(COc1ccccc1)N[NH3+] (centres undefined) [Phenoxypropazine]
> 46 µM | Nc1ccc([S+](=O)([O-])NC(=O)c2ccccc2)cc1 [Sulfabenzamide]
